Among the data in ChEMBL document CHEMBL1909046, “DrugMatrix in vitro pharmacology data” are IC50 and Ki values, retold here.

The target of assay [1] is T1, C-C chemokine receptor type 4 (Homo sapiens, UniProt P51679). Note: in other assays of this panel Not Active means under 50% inhibition at 10 µM.
T1 sequence (P51679 whole entry): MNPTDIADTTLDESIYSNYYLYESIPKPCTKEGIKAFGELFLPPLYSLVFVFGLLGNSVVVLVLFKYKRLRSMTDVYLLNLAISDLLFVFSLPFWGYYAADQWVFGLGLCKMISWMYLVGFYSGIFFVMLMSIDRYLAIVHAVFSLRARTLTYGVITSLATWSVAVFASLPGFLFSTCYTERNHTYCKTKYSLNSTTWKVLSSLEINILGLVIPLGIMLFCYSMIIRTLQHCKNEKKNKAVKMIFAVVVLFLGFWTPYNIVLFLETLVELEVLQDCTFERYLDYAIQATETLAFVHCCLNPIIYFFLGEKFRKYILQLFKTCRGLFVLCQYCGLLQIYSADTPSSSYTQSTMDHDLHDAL
It counts as cell membranes, Membrane. The note with it: chem-1.

Assay [2] addresses T2, Neutrophil elastase (Homo sapiens, UniProt P08246).
T2 sequence (P08246 whole entry): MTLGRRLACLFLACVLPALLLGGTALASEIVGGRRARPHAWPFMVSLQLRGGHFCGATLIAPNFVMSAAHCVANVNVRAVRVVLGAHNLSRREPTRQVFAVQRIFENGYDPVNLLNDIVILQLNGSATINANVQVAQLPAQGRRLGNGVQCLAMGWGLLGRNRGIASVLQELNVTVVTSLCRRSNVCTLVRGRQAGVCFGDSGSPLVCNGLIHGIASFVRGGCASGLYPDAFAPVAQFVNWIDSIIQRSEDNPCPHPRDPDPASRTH
Type of assay: tissue-based.

The target in assay [3] is T3, Alpha-2C adrenergic receptor (Homo sapiens, UniProt P18825).
T3 sequence (P18825 whole entry): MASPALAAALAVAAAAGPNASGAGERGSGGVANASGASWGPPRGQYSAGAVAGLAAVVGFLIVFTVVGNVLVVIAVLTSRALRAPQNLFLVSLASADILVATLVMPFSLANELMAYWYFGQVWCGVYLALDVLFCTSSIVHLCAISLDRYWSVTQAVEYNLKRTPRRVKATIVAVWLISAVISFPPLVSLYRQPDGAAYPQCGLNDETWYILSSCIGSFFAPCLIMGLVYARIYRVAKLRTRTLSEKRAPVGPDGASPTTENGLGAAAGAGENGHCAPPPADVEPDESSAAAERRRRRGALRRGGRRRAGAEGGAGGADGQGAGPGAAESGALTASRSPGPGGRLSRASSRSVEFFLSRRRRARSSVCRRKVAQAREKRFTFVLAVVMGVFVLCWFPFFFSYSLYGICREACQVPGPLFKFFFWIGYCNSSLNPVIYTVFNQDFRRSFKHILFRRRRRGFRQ
The assay can be described thus: DRUGMATRIX: Adrenergic Alpha-2C radioligand binding (ligand: [3H] MK-912). For IC50: call rule not given here. It counts as cell membranes, Sf9, Membrane.

Assay [4] concerns the target T4, Endothelin-1 receptor (Homo sapiens, UniProt P25101). Note: in other assays of this panel Not Active means under 50% inhibition at 10 µM.
T4 sequence (P25101 whole entry): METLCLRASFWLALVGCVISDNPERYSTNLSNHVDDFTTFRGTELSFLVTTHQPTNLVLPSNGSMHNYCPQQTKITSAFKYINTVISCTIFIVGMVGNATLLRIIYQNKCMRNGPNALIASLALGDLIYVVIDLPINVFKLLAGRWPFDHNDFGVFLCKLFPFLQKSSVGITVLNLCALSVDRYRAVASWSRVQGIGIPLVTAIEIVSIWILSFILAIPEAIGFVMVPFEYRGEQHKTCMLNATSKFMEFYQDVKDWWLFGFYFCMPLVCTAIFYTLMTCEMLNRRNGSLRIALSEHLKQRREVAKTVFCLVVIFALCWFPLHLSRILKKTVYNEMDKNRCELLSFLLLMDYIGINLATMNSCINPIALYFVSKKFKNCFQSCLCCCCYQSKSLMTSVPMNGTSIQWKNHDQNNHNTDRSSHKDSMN
It counts as cell membranes, CHO-K1, Membrane. The settings on record: cho-k1.

In assay [5] the target is Glycine receptor (Rattus norvegicus, UniProt P22771+P24524+P07727+P20781). It counts as cell membranes, Wistar, Spinal cord, Membrane. Note: in other assays of this panel Not Active means under 50% inhibition at 10 µM.
Assay [6] deals with Matrix metalloproteinase-9 (Homo sapiens, UniProt P14780). In words: biochemical. It counts as cell-based.
Chain of Matrix metalloproteinase-9 (P14780 whole entry): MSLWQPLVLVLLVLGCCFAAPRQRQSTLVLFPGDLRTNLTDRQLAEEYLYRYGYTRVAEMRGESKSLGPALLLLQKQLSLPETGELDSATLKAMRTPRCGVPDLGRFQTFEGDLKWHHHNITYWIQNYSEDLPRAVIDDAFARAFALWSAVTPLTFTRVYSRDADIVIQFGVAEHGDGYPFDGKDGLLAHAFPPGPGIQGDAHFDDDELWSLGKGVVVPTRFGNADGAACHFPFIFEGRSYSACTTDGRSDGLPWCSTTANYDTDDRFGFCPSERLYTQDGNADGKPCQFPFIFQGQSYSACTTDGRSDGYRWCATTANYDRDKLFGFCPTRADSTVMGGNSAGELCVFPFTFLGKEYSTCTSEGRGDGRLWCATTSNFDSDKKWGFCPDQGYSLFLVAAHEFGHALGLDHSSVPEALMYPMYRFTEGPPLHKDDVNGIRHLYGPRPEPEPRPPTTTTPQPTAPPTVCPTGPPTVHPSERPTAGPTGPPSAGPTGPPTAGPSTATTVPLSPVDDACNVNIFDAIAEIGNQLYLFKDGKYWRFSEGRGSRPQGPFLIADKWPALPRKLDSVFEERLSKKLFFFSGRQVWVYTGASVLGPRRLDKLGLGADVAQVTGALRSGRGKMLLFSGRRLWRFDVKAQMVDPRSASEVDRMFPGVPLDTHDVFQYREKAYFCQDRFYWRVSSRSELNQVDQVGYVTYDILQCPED

What is called IC50 is the concentration needed to halve the response being measured. As for `COc1ncnc(NS(=O)(=O)c2ccc(N)cc2)c1OC` [SULFADOXINE], the IC50 result in assay [1], in assay [2], in assay [3] (sf9), in assay [4], in assay [5] and in assay [6] was “Not Active” in each case.
Regarding `Nc1ccc(S(=O)(=O)Nc2nccs2)cc1` [SULFATHIAZOLE], the 50% inhibitory concentration (IC50) entry in assay [1], in assay [2], in assay [3] (sf9), in assay [4], in assay [5] and in assay [6] was “Not Active” in each case.
For the compound `C[C@]12CC[C@H]3[C@@H](CCC4=CC(=O)CC[C@@]43C)[C@@H]1CC[C@@H]2O` [TESTOSTERONE], the IC50 result in assay [1], in assay [2], in assay [3] (sf9), in assay [4], in assay [5] and in assay [6] was “Not Active” in each case.
For `CC(C)(C)NC[C@H](O)COc1nsnc1N1CCOCC1` [TIMOLOL], the IC50 result in assay [1], in assay [2], in assay [3] (sf9), in assay [4], in assay [5] and in assay [6] was “Not Active” throughout.
With `CCS(=O)(=O)CCn1c([N+](=O)[O-])cnc1C` [TINIDAZOLE], the concentration for half-maximal inhibition (IC50) result in assay [1], in assay [2], in assay [3] (sf9), in assay [4], in assay [5] and in assay [6] was “Not Active” each time.
Usually Ki stands for a measure of affinity in units of concentration, obtained from inhibition or displacement. On to `C[C@@H]1C[C@H]2[C@@H]3CCC4=CC(=O)C=C[C@]4(C)C3=CC[C@]2(C)[C@H]1C(=O)CN1CCN(c2cc(N3CCCC3)nc(N3CCCC3)n2)CC1` [TIRILAZAD], for which the half-inhibitory concentration (IC50) result in assay [1] is “Not Active”; in assay [2], “Not Active”; in assay [3] (read-out: IC50), 7.9 µM; in assay [4] it was “Not Active”; in assay [5], “Not Active”; in assay [6], “Not Active”. The Ki in assay [3] (read-out: Ki) amounted to 1.15 µM.
With `NC[C@H]1O[C@H](O[C@H]2[C@H](O)[C@@H](O[C@H]3O[C@H](CO)[C@@H](O)[C@H](N)[C@H]3O)[C@H](N)C[C@@H]2N)[C@H](N)C[C@@H]1O` [TOBRAMYCIN], the IC50 result in assay [1], in assay [2], in assay [3] (sf9), in assay [4], in assay [5] and in assay [6] was “Not Active” throughout.
Consider `O=C(O)C(Cl)(Cl)Cl` [TRICHLOROACETIC ACID], for which the 50% inhibitory concentration (IC50) entry in assay [1], in assay [2], in assay [3] (sf9), in assay [4], in assay [5] and in assay [6] was “Not Active” each time.
Turning to `COc1ccc(CN2CCNCC2)c(OC)c1OC` [TRIMETAZIDINE], the half-inhibitory concentration (IC50) result in assay [1], in assay [2], in assay [3] (sf9), in assay [4], in assay [5] and in assay [6] was “Not Active” each time.
Take `CC(=O)O[C@H]1C[C@@H]2CC[C@@H]3[C@H](CC[C@@]4(C)[C@H]3C[C@H]([N+]3(C)CCCCC3)[C@@H]4OC(C)=O)[C@@]2(C)C[C@@H]1N1CCCCC1.[Br-]` [VECURONIUM BROMIDE]: the IC50 entry in assay [1], in assay [2], in assay [3] (sf9), in assay [4], in assay [5] and in assay [6] was “Not Active” in each case.
As to `COc1cc(C(=O)NS(=O)(=O)c2ccccc2C)ccc1Cc1cn(C)c2ccc(NC(=O)OC3CCCC3)cc12` [ZAFIRLUKAST], the IC50 entry in assay [1], in assay [2], in assay [3] (sf9), in assay [4], in assay [5] and in assay [6] was “Not Active” in each case.
